Reference: ChEMBL document CHEMBL1201862, “PubChem BioAssay data set” (2004)
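Assay format: 96-well plates, 48-hour exposure. Abbreviation: GI50, concentration required for 50% inhibition of growth.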 The source made the active and inactive calls. Rule as the data show it: active = GI50 up to about 1.1 µM and inactive = higher.

Tests used:
Assay in all cases: growth of human tumour cells (NCI), 48 h
786-0 = test system: 786-0
A498 = test system: A498
A549 = test system: A549
ACHN = test system: ACHN
BT-549 = test system: BT-549
CAKI-1 = test system: CAKI-1
CCRF-CEM = test system: CCRF-CEM
COLO 205 = test system: COLO 205
DU-145 = test system: DU-145
EKVX = test system: EKVX
HCC 2998 = test system: HCC 2998
HCT-116 = test system: HCT-116
HCT-15 = test system: HCT-15
HL-60 = test system: HL-60
HOP-62 = test system: HOP-62
HOP-92 = test system: HOP-92
HT-29 = test system: HT-29
Hs-578T = test system: Hs-578T
IGROV-1 = test system: IGROV-1
K562 = test system: K562
KM12 = test system: KM12
LOX IMVI = test system: LOX IMVI
M14 = test system: M14
MCF7 = test system: MCF7
MDA-MB-231 = test system: MDA-MB-231
MDA-MB-435 = test system: MDA-MB-435
MDA-N = test system: MDA-N
MOLT-4 = test system: MOLT-4
Malme-3M = test system: Malme-3M
NCI-H226 = test system: NCI-H226
NCI-H23 = test system: NCI-H23
NCI-H460 = test system: NCI-H460
NCI-H522 = test system: NCI-H522
NCI/ADR-RES = test system: NCI/ADR-RES
OVCAR-3 = test system: OVCAR-3
OVCAR-4 = test system: OVCAR-4
OVCAR-5 = test system: OVCAR-5
OVCAR-8 = test system: OVCAR-8
PC-3 = test system: PC-3
RPMI-8226 = test system: RPMI-8226
RXF 393 = test system: RXF 393
SF-268 = test system: SF-268
SF-295 = test system: SF-295
SF-539 = test system: SF-539
SK-MEL-28 = test system: SK-MEL-28
SK-MEL-2 = test system: SK-MEL-2
SK-MEL-5 = test system: SK-MEL-5
SK-OV-3 = test system: SK-OV-3
SN12C = test system: SN12C
SNB-19 = test system: SNB-19
SNB-75 = test system: SNB-75
SR = test system: SR
SW-620 = test system: SW-620
T47D = test system: T47D
TK-10 = test system: TK-10
U-251 = test system: U-251
UACC-257 = test system: UACC-257
UACC-62 = test system: UACC-62
UO-31 = test system: UO-31

Measured: GI50

CN1C(=O)C23CC4=CC=CC(O)C4N2C(=O)C1(CO)SS3 (configuration not stated)
active: 786-0 0.084 µM | A498 0.234 µM | A549 0.171 µM | ACHN 0.174 µM | BT-549 0.291 µM | CAKI-1 0.308 µM | CCRF-CEM 0.0205 µM | COLO 205 0.0524 µM | DU-145 0.157 µM | EKVX 0.368 µM | HCC 2998 0.155 µM | HCT-116 0.107 µM | HL-60 0.0223 µM | HOP-62 0.182 µM | HOP-92 0.165 µM | HT-29 0.0188 µM | Hs-578T 0.39 µM | IGROV-1 0.145 µM | K562 0.139 µM | KM12 0.0991 µM | LOX IMVI 0.17 µM | M14 0.0506 µM | MCF7 0.16 µM | MDA-MB-231 0.199 µM | MDA-MB-435 0.224 µM | MDA-N 0.188 µM | MOLT-4 0.134 µM | Malme-3M 0.223 µM | NCI-H226 0.0891 µM | NCI-H23 0.167 µM | NCI-H460 0.0948 µM | NCI-H522 0.169 µM | NCI/ADR-RES 0.0224 µM | OVCAR-3 0.199 µM | OVCAR-4 0.223 µM | OVCAR-5 0.0526 µM | OVCAR-8 0.0611 µM | PC-3 0.167 µM | RPMI-8226 0.163 µM | RXF 393 0.179 µM | SF-268 0.207 µM | SF-295 0.181 µM | SF-539 0.0204 µM | SK-MEL-28 0.507 µM | SK-MEL-2 0.22 µM | SK-MEL-5 0.173 µM | SN12C 0.0705 µM | SNB-19 0.553 µM | SNB-75 0.21 µM | SR 0.0291 µM | SW-620 0.237 µM | T47D 0.183 µM | TK-10 0.179 µM | U-251 0.153 µM | UACC-257 0.299 µM | UACC-62 0.179 µM | UO-31 0.565 µM
0.0845 µM: HCT-15
inactive: SK-OV-3 1.26 µM

COc1ccccc1Nc1nc(N)nc(N)c1N
62.1 µM: HCT-15
inactive: 786-0 33.4 µM | A498 > 100 µM | A549 > 100 µM | ACHN > 100 µM | BT-549 > 100 µM | CAKI-1 58.7 µM | CCRF-CEM 27 µM | COLO 205 48.2 µM | DU-145 > 100 µM | EKVX > 100 µM | HCC 2998 > 100 µM | HCT-116 19 µM | HL-60 29.1 µM | HOP-62 > 100 µM | HOP-92 > 100 µM | HT-29 45.4 µM | Hs-578T > 100 µM | IGROV-1 72.6 µM | K562 45.1 µM | KM12 > 100 µM | LOX IMVI 20.8 µM | M14 > 100 µM | MCF7 29.2 µM | MDA-MB-231 29.4 µM | MDA-MB-435 27.5 µM | MDA-N 17.6 µM | MOLT-4 14.7 µM | Malme-3M > 100 µM | NCI-H226 > 100 µM | NCI-H23 66.1 µM | NCI-H460 38.5 µM | NCI-H522 18.1 µM | NCI/ADR-RES > 100 µM | OVCAR-3 43.9 µM | OVCAR-4 > 100 µM | OVCAR-5 > 100 µM | OVCAR-8 > 100 µM | PC-3 90.8 µM | RPMI-8226 34.4 µM | RXF 393 > 100 µM | SF-268 64.1 µM | SF-295 28.6 µM | SF-539 50.6 µM | SK-MEL-28 > 100 µM | SK-MEL-2 > 100 µM | SK-MEL-5 54.1 µM | SK-OV-3 > 100 µM | SN12C 17.5 µM | SNB-19 > 100 µM | SNB-75 > 100 µM | SR 23.7 µM | SW-620 27.2 µM | T47D 58.5 µM | TK-10 > 100 µM | U-251 64.3 µM | UACC-257 60.3 µM | UACC-62 57.5 µM | UO-31 > 100 µM

Nc1ncnc2c1ncn2CCCNO
inactive: 786-0 > 100 µM | A498 > 100 µM | A549 > 100 µM | ACHN > 100 µM | BT-549 > 100 µM | CAKI-1 > 100 µM | CCRF-CEM > 100 µM | COLO 205 > 100 µM | DU-145 > 100 µM | EKVX > 100 µM | HCC 2998 > 100 µM | HCT-116 > 100 µM | HL-60 > 100 µM | HOP-62 > 100 µM | HOP-92 > 100 µM | HT-29 > 100 µM | Hs-578T > 100 µM | IGROV-1 > 100 µM | K562 > 100 µM | KM12 > 100 µM | LOX IMVI > 100 µM | M14 > 100 µM | MCF7 > 100 µM | MDA-MB-231 > 100 µM | MDA-MB-435 > 100 µM | MDA-N > 100 µM | MOLT-4 > 100 µM | Malme-3M > 100 µM | NCI-H226 > 100 µM | NCI-H23 > 100 µM | NCI-H460 > 100 µM | NCI-H522 > 100 µM | NCI/ADR-RES > 100 µM | OVCAR-3 > 100 µM | OVCAR-4 > 100 µM | OVCAR-5 > 100 µM | OVCAR-8 > 100 µM | PC-3 > 100 µM | RPMI-8226 > 100 µM | RXF 393 > 100 µM | SF-268 > 100 µM | SF-295 > 100 µM | SF-539 > 100 µM | SK-MEL-28 > 100 µM | SK-MEL-2 > 100 µM | SK-MEL-5 > 100 µM | SK-OV-3 > 100 µM | SN12C > 100 µM | SNB-19 > 100 µM | SNB-75 > 100 µM | SR > 100 µM | SW-620 > 100 µM | T47D > 100 µM | TK-10 > 100 µM | U-251 > 100 µM | UACC-257 > 100 µM | UACC-62 > 100 µM | UO-31 > 100 µM
> 100 µM: HCT-15
